According to paper PMC11648822, “Lactam Truncation Yields a Dihydroquinazolinone Scaffold with Potent Antimalarial Activity that Targets PfATP4” (Chemmedchem, 2024):

Molecular target: T1, Dd2‐PfATP4^WT (Plasmodium falciparum, UniProt A0A143ZZK9, G1128R)
T1 construct: We prepared membranes from Dd2‐Polδ‐PfATP4^G358S parasites (generated previously[22]) and Dd2‐Polδ parental parasites; endogenous in cells; host or cells: P. falciparum Dd2-Polδ trophozoites (membrane preparation)
T1 sequence (A0A143ZZK9 1-1264 G1128R): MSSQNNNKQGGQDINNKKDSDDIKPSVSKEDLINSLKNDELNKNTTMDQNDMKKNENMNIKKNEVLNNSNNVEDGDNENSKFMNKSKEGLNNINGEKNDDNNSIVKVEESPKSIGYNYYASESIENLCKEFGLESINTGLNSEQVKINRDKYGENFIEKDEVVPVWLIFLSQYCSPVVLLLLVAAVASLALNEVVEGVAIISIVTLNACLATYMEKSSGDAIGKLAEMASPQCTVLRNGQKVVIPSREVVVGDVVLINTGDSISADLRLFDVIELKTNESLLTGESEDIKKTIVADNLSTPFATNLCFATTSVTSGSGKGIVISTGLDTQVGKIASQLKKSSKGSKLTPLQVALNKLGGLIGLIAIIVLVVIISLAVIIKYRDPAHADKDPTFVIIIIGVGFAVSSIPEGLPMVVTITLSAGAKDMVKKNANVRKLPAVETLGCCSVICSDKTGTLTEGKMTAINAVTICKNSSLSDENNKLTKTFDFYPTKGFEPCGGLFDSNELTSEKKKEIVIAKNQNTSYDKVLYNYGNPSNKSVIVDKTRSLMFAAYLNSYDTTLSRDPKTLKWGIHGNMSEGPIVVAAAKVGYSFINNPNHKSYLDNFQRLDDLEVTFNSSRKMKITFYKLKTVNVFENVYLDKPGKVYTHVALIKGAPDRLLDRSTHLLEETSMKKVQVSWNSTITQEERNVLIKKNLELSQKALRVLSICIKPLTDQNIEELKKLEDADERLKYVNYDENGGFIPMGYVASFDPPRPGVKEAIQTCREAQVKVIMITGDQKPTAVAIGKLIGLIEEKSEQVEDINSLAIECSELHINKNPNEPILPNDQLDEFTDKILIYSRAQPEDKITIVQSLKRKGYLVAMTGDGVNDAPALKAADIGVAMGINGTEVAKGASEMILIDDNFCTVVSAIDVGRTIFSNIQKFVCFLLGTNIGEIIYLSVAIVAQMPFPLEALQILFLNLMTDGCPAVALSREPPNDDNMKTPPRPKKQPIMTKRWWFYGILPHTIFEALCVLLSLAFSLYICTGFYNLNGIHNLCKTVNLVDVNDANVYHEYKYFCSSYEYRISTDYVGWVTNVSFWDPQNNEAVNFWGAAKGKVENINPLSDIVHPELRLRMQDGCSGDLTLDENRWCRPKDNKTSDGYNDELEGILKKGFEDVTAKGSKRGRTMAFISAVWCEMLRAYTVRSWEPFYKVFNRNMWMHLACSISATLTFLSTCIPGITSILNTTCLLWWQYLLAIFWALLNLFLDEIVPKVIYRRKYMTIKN
Experiment: PfATP4 Na+ assay (membrane ATPase), Dd2-Polδ parental membranes
Type: biochemical, P. falciparum
Conditions: membranes from Dd2-Polδ parental parasites
Method: Figure 4 Dihydroquinazolinone analogs 14 and 36 (WJM062) inhibit Na^+‐ATPase activity in membranes prepared from isolated P. falciparum parasites, consistent with them being PfATP4 inhibitors. (A) The effects of dihydroquinazolinone compounds (2 μM), dihydroartemisinin (DHA; 50 nM; negative control) and 0.2 % v/v DMSO (solvent‐only control) on membrane ATPase activity under high‐[Na^+] conditions (152 mM Na^+) and low‐[Na^+] conditions (2 mM Na^+; stemming from the addition of 1 mM Na2ATP) in the presence and absence of the PfATP4 inhibitor cipargamin (50 nM). The membranes were prepared from isolated trophozoite‐stage 3D7 parasites. The Pi produced is expressed as a percentage of that measured in the 152 mM Na^+ Control. The data are from four independent experiments performed with different membrane preparations; the symbols show the data from individual experiments and the bars show the mean (+SEM). In individual experiments, the Pi produced in the 152 mM Na^+ Control varied from 66 to 96 nmol per mg (total) protein per min. A repeated measures ANOVA with a post hoc Tukey test was used to compare the (pre‐normalised) data for different compounds and conditions. […] In B−D, the Pi production measured in the low‐[Na^+] (2 mM) condition was subtracted from that measured in high‐[Na^+] […] The PfATP4‐associated ATPase activity is expressed as a percentage of that obtained for the high‐[Na^+] […]

| Compound | EC50 [nM] |
| --- | --- |
| CN1C(=O)c2ccc(Cl)cc2NC1(C)C(=O)Nc1cncc(Cl)c1 (centres unmarked) [Compound 14, 7‐Chloro‐N‐(5‐chloro‐3‐pyridyl)‐2,3‐dimethyl‐4‐oxo‐1H‐quinazoline‐2‐carboxamide] | 8.4 |
| COc1cc(F)c2c(c1)NC(C)(C(=O)Nc1cncc(Cl)c1)N(C)C2=O (centres unmarked) [Compound 36, N‐(5‐Chloropyridin‐3‐yl)‐5‐fluoro‐7‐methoxy‐2,3‐dimethyl‐4‐oxo‐1,2,3,4‐tetrahydroquinazoline‐2‐carboxamide] | 7.8 |
